17 compounds from ChEMBL document CHEMBL1152909, “Low molecular weight non-peptide mimics of omega-conotoxin GVIA” (Bioorg Med Chem Lett, 2009) can be followed below.

The source made the active and inactive calls. No cut-off for these calls is given here.

For orientation: EC50 means the concentration at which the effect is half-maximal.

Sequence of Voltage-dependent N-type calcium channel subunit alpha-1B (Rattus norvegicus) (Q02294 whole entry, looked up): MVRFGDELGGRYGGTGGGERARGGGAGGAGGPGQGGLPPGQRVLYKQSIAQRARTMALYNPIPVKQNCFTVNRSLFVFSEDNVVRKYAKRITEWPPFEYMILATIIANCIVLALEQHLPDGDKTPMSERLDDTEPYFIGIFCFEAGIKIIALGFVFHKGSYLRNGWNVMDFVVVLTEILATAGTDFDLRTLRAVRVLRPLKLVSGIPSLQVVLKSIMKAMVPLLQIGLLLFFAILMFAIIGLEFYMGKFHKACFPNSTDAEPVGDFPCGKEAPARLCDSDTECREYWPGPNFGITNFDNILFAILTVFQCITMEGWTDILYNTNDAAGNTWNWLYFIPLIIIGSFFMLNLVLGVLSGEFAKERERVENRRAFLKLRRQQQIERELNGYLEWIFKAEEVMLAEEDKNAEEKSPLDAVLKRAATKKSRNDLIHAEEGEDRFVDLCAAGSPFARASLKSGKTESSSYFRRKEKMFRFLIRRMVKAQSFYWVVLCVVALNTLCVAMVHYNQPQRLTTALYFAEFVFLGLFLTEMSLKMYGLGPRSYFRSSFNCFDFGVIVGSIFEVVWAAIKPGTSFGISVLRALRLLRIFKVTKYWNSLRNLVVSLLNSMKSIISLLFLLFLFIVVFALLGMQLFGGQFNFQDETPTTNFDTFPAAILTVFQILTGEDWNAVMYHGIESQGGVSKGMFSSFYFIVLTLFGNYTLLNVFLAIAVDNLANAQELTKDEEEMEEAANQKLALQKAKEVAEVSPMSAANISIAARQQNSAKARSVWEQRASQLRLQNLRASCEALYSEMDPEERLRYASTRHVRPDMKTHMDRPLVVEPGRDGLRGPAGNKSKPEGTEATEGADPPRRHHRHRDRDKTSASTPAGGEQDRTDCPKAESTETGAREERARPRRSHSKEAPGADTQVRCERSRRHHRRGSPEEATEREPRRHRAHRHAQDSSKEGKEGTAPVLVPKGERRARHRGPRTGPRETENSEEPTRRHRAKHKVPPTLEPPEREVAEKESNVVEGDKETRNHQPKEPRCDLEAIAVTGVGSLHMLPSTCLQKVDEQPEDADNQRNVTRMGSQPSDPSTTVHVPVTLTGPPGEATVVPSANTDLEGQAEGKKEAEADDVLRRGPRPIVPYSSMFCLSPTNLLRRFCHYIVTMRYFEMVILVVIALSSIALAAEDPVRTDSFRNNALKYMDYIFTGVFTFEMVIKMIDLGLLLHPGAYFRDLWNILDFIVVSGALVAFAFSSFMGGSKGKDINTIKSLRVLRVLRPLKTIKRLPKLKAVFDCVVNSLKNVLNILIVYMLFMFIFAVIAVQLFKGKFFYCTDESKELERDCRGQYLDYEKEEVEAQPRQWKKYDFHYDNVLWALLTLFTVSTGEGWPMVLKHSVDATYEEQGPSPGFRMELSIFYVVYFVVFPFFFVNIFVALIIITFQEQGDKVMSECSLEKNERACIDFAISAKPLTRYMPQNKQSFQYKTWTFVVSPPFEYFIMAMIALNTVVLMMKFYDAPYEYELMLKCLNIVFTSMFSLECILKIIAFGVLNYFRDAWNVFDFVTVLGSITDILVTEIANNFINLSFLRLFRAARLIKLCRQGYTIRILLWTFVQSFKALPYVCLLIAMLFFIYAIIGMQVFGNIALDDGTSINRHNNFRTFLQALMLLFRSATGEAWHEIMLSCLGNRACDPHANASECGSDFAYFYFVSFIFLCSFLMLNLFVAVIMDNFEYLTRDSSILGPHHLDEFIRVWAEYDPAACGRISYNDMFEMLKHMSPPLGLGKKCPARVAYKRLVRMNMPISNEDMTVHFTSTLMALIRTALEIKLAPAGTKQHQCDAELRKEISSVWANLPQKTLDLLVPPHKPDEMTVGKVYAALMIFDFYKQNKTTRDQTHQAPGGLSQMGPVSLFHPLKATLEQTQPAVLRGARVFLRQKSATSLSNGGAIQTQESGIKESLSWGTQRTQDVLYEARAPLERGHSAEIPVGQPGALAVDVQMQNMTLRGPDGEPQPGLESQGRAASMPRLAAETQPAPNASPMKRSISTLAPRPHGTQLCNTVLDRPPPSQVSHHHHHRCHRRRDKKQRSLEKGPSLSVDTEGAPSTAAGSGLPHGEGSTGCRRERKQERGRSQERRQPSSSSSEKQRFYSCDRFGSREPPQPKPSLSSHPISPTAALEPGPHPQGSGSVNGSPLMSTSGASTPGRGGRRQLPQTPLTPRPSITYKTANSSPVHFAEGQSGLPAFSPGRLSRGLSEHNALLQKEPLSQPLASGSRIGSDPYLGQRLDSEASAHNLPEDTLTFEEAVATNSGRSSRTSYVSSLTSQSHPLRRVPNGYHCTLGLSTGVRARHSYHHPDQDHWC

The first assay concerns the target Voltage-dependent N-type calcium channel subunit alpha-1B (Rattus norvegicus) (UniProt Q02294). In words: (§1) Inhibition of rat neuronal Cav2.2 channel.
On to `ClCCCOc1ccc(CNc2nc3ccc(Oc4ccccc4)cc3s2)cc1`, for which the outcome was inactive. Consider `[N-]=[N+]=NCCCOc1ccc(CNc2nc3ccc(Oc4ccccc4)cc3s2)cc1`, for which the result was inactive. As for `CC(C)(C)OC(=O)NCCCOc1ccc(CNc2nc3ccc(Oc4ccccc4)cc3s2)cc1`, the result was inactive. On to `Oc1ccc(CNc2nc3ccc(Oc4ccccc4)cc3s2)cc1`, for which the result was inactive.

Another assay deals with Voltage-dependent N-type calcium channel subunit alpha-1B (Rattus norvegicus, UniProt Q02294). The assay is described as §1.
Sequence of Voltage-dependent N-type calcium channel subunit alpha-1B (Q02294 whole entry): as the sequence (Q02294 whole entry, looked up) above
Consider `NC(N)=NCCCOc1ccccc1C(=O)Nc1nc2ccc(Oc3ccccc3)cc2s1`, for which the EC50 was 33 µM.

Regarding `NC(N)=NCCCOc1ccc(CNCC(c2ccccc2)c2ccccc2)cc1`, the EC50 was found to be 12 µM. The same measure, in the same setting: next, `NCCCOc1ccc(CNC(c2ccccc2)c2ccccc2)cc1`: more than 100 µM.

Take `NC(N)=NCCCOc1ccc(CNc2nc3ccc(Oc4ccccc4)cc3s2)cc1`: the EC50 stood at 5.8 µM. Same read-out and setting: next, `NCCCOc1ccc(CNCC(c2ccccc2)c2ccccc2)cc1`: more than 100 µM; `NCCCOc1ccc(CNc2ccc(Oc3ccccc3)cc2)cc1`: 34 µM.

As to `NCCCOc1ccc(CNc2nc3ccc(Oc4ccccc4)cc3s2)cc1`, the EC50 was found to be 76 µM. For `NCCCOc1ccc(CN(C(=O)c2ccccc2OCCCN)c2nc3ccc(Oc4ccc(O)cc4)cc3s2)cc1`, the EC50 turned out to be 3.18 µM.

With `NC(N)=NCCCOc1ccc(CNc2ccc(Oc3ccccc3)cc2)cc1`, the EC50 was determined as 21 µM.

As for `NCCCOc1ccccc1C(=O)N(Cc1ccc(OCCCN=C(N)N)cc1)c1nc2ccc(Oc3ccccc3)cc2s1`, the EC50 is 3.08 µM.

As to `NCCCOc1ccccc1C(=O)Nc1nc2ccc(Oc3ccccc3)cc2s1`, the concentration giving a half-maximal response (EC50) was more than 100 µM. As for `NC(N)=NCCCOc1ccc(CNC(c2ccccc2)c2ccccc2)cc1`, the EC50 amounted to 23 µM. With `NCCCOc1ccccc1C(=O)N(Cc1ccc(OCCCN=C(N)N)cc1)c1nc2ccc(Oc3ccc(O)cc3)cc2s1`, the EC50 amounted to 1.78 µM.
